The results in this text go back to ChEMBL document CHEMBL2380214, “Novel hybrids of (phenylsulfonyl)furoxan and anilinopyrimidine as potent and selective epidermal growth factor receptor inhibitors for intervention of non-small-cell lung cancer” (J Med Chem, 2013).

A short description of data set [1]: cells. The format is functional, cell-based. The settings on record: Homo sapiens, HCC827, 72 h.
For a further data set, the system named is A-431. Nature of the data set: cells. The format is ADME, cell-based. The settings on record: Homo sapiens, A-431, 72 h.
The target of data set [2] is Epidermal growth factor receptor (Homo sapiens, UniProt P00533, L858R). Type of data set: protein assay.
Description: Inhibition of EGFR L858R mutant (unknown origin) after 1.5 hrs by FRET-based Z'Lyte assay
Data set [3] concerns NCI-H1975. Nature of the data set: Cytotoxicity against gefitinib-resistant human NCI-H1975 cells harboring EGFR L858R/[…] double mutant assessed as growth inhibition after 72 hrs by MTT assay. The format is functional, cell-based. The settings on record: NCI-H1975, 72 h. Background: Tetrazolium dyes change colour on reduction, which living cells bring about.
Data set [4] in a line: cells. Type of data set: ADME, cell-based. To be noted: Homo sapiens, BEAS-2B, 72 h.
Description: Cytotoxicity against human BEAS2B cells harboring wild type EGFR assessed as growth inhibition after 72 hrs by MTT assay
In data set [5] the target is Epidermal growth factor receptor (Homo sapiens, UniProt P00533).
Description: Inhibition of wild type EGFR (unknown origin) after 1.5 hrs by FRET-based Z'Lyte assay
The next data set has as its system A549. Nature of the data set: cells. To be noted: Homo sapiens, A549, 72 h. Type of data set: ADME, cell-based.
The target in data set [6] is Epidermal growth factor receptor (Homo sapiens, UniProt P00533, L858R/T790M). Type of data set: protein assay.
Description: Inhibition of EGFR L858R/T790M double mutant (unknown origin) after 1.5 hrs by FRET-based Z'Lyte assay
The nature of data set [7]: cells. Type of data set: ADME, cell-based. To be noted: Homo sapiens, 16HBE14o-, 72 h.
Description: Cytotoxicity against human 16HBE14o- cells harboring wild type EGFR assessed as growth inhibition after 72 hrs by MTT assay
Data set [8] has as its system NCI-H1975. The experiment in a line: Induction of NO production in human NCI-H1975 cells harboring EGFR L858R/[…] double mutant assessed as increase in nitrite level at 100 uM after 150 mins by Griess assay. The format is functional, cell-based.
A short description of data set [9]: Selectivity ratio of IC50 for human BEAS2B cells harboring wild type EGFR to IC50 for gefitinib-resistant human NCI-H1975 cells harboring EGFR L858R/[…] double mutant. The format is ADME, cell-based. The settings on record: read-out: Ratio IC50.
A short description of data set [10]: Selectivity ratio of IC50 for human A431 cells overexpressing wild type EGFR to IC50 for gefitinib-sensitive human HCC827 cells harboring EGFR […] deletion mutant. Type of data set: ADME, cell-based.
A short description of data set [11]: Selectivity ratio of IC50 for human BEAS2B cells harboring wild type EGFR to IC50 for gefitinib-sensitive human HCC827 cells harboring EGFR […] deletion mutant. The format is ADME, cell-based. To be noted: read-out: Ratio IC50.
Data set [12] in a line: Selectivity ratio of IC50 for human A431 cells overexpressing wild type EGFR to IC50 for gefitinib-resistant human NCI-H1975 cells harboring EGFR L858R/[…] double mutant. Type of data set: ADME, cell-based.
Data set [13] is described as follows: Selectivity ratio of IC50 for human 16HBE14o- cells harboring wild type EGFR to IC50 for gefitinib-resistant human NCI-H1975 cells harboring EGFR L858R/[…] double mutant. The format is ADME, cell-based. The settings on record: read-out: Ratio IC50.
Data set [14] is described as follows: Selectivity ratio of IC50 for human A549 cells harboring wild type EGFR and k-RAS mutation to IC50 for gefitinib-sensitive human HCC827 cells harboring EGFR […] deletion mutant. The format is ADME, cell-based.
Data set [15] can be described thus: Selectivity ratio of IC50 for human 16HBE14o- cells harboring wild type EGFR to IC50 for gefitinib-sensitive human HCC827 cells harboring EGFR […] deletion mutant. The format is ADME, cell-based. The settings on record: read-out: Ratio IC50.
Data set [16] can be described thus: Selectivity ratio of IC50 for human A549 cells harboring wild type EGFR and k-RAS mutation to IC50 for gefitinib-resistant human NCI-H1975 cells harboring EGFR L858R/[…] double mutant. Type of data set: ADME, cell-based.

Activity calls are given as the source filed them. The calls are words filed in the database; no cut-off is given here.

Epidermal growth factor receptor (Homo sapiens, UniProt P00533, L858R/T790M), sequence (P00533 25-1210 T790M/L858R limits assumed): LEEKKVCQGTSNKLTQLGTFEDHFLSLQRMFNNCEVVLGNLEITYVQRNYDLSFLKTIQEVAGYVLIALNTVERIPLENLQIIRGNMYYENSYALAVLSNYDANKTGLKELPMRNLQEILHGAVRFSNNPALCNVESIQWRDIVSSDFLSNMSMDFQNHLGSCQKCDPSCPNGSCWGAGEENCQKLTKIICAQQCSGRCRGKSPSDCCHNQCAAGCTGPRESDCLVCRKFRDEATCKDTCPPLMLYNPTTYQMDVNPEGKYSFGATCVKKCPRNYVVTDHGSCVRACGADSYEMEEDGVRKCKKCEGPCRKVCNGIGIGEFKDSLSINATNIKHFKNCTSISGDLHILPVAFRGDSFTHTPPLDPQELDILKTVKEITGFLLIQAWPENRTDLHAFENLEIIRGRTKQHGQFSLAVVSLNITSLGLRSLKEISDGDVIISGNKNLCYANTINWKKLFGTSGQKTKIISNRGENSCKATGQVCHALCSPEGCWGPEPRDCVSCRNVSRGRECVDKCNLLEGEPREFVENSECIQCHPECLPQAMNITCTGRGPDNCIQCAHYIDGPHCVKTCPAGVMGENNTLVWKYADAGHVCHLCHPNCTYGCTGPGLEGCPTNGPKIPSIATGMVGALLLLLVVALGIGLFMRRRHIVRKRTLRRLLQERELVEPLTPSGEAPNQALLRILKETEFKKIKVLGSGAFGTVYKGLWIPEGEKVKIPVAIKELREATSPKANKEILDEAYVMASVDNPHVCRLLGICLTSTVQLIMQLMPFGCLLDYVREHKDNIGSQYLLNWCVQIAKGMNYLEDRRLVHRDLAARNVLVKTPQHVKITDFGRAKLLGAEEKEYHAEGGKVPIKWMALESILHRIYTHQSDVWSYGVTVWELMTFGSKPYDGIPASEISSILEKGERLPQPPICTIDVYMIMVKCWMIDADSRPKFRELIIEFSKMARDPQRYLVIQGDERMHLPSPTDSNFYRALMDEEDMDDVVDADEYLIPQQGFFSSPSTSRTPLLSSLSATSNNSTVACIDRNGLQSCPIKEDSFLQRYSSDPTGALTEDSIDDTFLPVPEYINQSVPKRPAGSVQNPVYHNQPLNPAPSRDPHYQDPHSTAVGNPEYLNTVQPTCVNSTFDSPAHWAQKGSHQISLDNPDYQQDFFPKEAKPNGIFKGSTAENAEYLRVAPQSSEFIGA
Epidermal growth factor receptor (Homo sapiens, UniProt P00533, L858R), sequence (P00533 25-1210 L858R limits assumed): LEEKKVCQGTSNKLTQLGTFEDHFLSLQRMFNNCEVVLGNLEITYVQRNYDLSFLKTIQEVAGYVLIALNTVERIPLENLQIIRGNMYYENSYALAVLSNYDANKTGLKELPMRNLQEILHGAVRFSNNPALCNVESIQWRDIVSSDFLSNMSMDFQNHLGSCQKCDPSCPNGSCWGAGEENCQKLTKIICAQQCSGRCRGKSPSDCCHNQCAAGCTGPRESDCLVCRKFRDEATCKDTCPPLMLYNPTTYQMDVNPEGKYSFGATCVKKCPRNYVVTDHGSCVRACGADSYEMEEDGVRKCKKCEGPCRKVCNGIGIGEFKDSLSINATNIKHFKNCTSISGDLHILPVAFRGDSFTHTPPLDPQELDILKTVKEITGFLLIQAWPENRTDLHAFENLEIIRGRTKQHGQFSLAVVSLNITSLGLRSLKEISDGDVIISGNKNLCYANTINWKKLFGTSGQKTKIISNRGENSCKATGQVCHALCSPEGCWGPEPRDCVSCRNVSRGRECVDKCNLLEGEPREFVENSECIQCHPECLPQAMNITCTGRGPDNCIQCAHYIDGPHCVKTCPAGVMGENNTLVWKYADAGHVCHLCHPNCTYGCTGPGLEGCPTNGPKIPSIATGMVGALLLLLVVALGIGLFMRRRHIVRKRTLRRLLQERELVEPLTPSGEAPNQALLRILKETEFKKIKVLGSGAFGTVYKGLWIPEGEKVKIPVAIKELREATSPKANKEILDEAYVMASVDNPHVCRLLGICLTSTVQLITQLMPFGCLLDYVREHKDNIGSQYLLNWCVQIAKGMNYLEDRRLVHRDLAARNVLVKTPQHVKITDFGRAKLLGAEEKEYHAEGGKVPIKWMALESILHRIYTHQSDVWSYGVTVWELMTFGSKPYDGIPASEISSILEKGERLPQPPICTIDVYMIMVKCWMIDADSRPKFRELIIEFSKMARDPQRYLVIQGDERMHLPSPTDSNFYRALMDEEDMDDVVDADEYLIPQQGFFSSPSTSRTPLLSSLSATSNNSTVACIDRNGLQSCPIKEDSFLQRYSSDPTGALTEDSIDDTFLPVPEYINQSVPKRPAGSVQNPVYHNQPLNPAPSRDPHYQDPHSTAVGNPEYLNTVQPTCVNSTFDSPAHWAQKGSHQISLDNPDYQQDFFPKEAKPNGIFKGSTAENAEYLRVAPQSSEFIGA
Epidermal growth factor receptor (Homo sapiens, UniProt P00533), sequence (P00533 whole entry): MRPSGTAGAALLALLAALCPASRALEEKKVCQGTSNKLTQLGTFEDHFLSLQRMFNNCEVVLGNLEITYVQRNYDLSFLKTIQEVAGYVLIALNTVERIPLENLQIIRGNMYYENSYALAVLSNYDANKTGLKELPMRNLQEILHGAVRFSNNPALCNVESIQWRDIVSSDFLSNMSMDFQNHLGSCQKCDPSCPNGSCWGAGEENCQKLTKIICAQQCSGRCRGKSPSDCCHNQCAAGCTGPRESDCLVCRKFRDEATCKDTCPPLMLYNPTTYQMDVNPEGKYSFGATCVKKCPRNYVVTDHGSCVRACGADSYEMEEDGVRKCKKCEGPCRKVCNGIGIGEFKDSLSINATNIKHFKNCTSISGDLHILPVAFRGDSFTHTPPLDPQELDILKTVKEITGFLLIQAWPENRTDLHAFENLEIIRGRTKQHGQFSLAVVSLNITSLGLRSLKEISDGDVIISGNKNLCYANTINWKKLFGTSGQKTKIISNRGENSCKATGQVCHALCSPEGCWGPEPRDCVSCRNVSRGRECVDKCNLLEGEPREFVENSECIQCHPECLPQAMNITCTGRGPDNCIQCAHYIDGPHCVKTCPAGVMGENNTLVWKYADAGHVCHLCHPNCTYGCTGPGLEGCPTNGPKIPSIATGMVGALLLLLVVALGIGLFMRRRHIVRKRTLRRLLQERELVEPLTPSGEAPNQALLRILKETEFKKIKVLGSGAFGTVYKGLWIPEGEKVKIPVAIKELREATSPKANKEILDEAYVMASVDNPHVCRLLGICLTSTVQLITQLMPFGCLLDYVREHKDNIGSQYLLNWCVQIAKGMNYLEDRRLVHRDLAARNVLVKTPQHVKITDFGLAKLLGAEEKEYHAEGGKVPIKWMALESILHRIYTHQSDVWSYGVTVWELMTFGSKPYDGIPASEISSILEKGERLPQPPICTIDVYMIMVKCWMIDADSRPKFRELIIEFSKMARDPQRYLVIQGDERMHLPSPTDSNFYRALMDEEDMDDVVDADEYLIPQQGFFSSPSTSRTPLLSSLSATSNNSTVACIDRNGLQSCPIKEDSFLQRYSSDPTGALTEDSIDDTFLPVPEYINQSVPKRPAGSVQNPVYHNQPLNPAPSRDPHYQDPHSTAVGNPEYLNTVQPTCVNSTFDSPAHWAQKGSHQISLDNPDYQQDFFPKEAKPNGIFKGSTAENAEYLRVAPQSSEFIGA
Description for A-431: Cytotoxicity against human A431 cells overexpressing wild type EGFR assessed as growth inhibition after 72 hrs by MTT assay
Description for A549: Cytotoxicity against human A549 cells harboring wild type EGFR and k-RAS mutation assessed as growth inhibition after 72 hrs by MTT assay

Consider `C=CC(=O)Nc1cccc(Oc2nc(Nc3ccc(N4CCN(CC(=O)OCCCOc5no[n+]([O-])c5S(=O)(=O)c5ccccc5)CC4)cc3OC)ncc2Cl)c1`, for which the concentration for half-maximal inhibition (IC50) in the data set “cells [1]” turned out to be 22 nM; in the data set on A-431 it was 1060 nM; in [2] it was 98 nM; in the data set with NCI-H1975 [3] it was 396 nM; in “cells [4]”, 2980 nM; in data set [5], 99 nM. The IC50 with A549 was found to be 2930 nM; in data set [6], 23 nM; in the data set “cells [7]”, 2580 nM.
`C=CC(=O)Nc1cccc(Oc2nc(Nc3ccc(N4CCN(CC(=O)NCCCOc5no[n+]([O-])c5S(=O)(=O)c5ccccc5)CC4)cc3OC)ncc2Cl)c1`: the IC50 was determined as 21 nM in “cells [1]”; 357 nM in the data set on A-431; 68 nM in [2]; 1030 nM in the data set with NCI-H1975 [3]; 2440 nM in the data set “cells [4]”; 59 nM in data set [5]. For the same compound, the IC50 turned out to be 2480 nM with A549, 13 nM in [6] and 2280 nM in “cells [7]”.
`C=CC(=O)Nc1cccc(Oc2nc(Nc3ccc(N4CCN(CC(=O)NCC(C)Oc5no[n+]([O-])c5S(=O)(=O)c5ccccc5)CC4)cc3OC)ncc2Cl)c1` (stereo unspecified): the IC50 is 38 nM in the data set “cells [1]”; 660 nM in the data set on A-431; 99 nM in data set [2]; 245 nM with NCI-H1975 [3]; 988 nM in “cells [4]”; 73 nM in data set [5]. The values for the half-maximal inhibitory concentration (IC50) (in the data set on A549; in data set [6]; in “cells [7]”) were 1790 nM, 20 nM and 1850 nM, respectively. Moreover, in the data set on NCI-H1975 [8], the result was Active.
As for `C=CC(=O)Nc1cccc(Oc2nc(Nc3ccc(N4CCN(CC(=O)OCC)CC4)cc3OC)ncc2Cl)c1`, the IC50 is 100 nM in the data set “cells [1]”; greater than 10000 nM in the data set on A-431; 1510 nM in the data set on NCI-H1975 [3]; greater than 50000 nM in “cells [4]”; 1450 nM in the data set on A549; 707 nM in the data set “cells [7]”.
Turning to `C=CC(=O)Nc1cccc(Oc2nc(Nc3ccc(N4CCN(CC(=O)N5CCN(CCOc6no[n+]([O-])c6S(=O)(=O)c6ccccc6)CC5)CC4)cc3OC)ncc2Cl)c1`, the IC50 in the data set “cells [1]” came out at 291 nM; with A-431, 609 nM; in data set [2] it was 40 nM; in the data set on NCI-H1975 [3] it was 311 nM; in “cells [4]”, 1890 nM; in data set [5], 39 nM. Also, the 50% inhibitory concentration (IC50) turned out to be 2120 nM in the data set on A549, 6 nM in [6] and 1480 nM in “cells [7]”. In addition, the outcome with NCI-H1975 [8] was Active.
Turning to `C=CC(=O)Nc1cccc(Oc2nc(Nc3ccc(N4CCN(CC(=O)OCC#CCOc5no[n+]([O-])c5S(=O)(=O)c5ccccc5)CC4)cc3OC)ncc2Cl)c1`, the IC50 in “cells [1]” stood at 10 nM; in the data set with A-431, 3500 nM; in data set [2], 64 nM; in the data set on NCI-H1975 [3], 43 nM; in “cells [4]”, 959 nM; in [5] it was 52 nM. In addition, the IC50 in the data set on A549 was 5530 nM; in data set [6], 16 nM; in “cells [7]”, 2620 nM. For the same compound, in the data set on NCI-H1975 [8], the outcome was Active.
Turning to `C=CC(=O)Nc1cccc(Oc2nc(Nc3ccc(N4CCN(CC(=O)OCCCCOc5no[n+]([O-])c5S(=O)(=O)c5ccccc5)CC4)cc3OC)ncc2Cl)c1`, the IC50 stood at 6 nM in “cells [1]”; 4070 nM in the data set on A-431; 189 nM in data set [2]; 69 nM in the data set on NCI-H1975 [3]; 2560 nM in “cells [4]”; 174 nM in [5]. Also, the IC50 is 17200 nM in the data set on A549, 38 nM in data set [6] and 4150 nM in “cells [7]”. The selectivity ratio in data set [9], in data set [11], in data set [13] and in [15] was 40 in each case. The “Ratio IC50” value in data set [10], in data set [12], in data set [14] and in data set [16] was 60 each time.
Take `C=CC(=O)Nc1cccc(Oc2nc(Nc3ccc(N4CCN(CC(=O)OCCOc5no[n+]([O-])c5S(=O)(=O)c5ccccc5)CC4)cc3OC)ncc2Cl)c1`: the IC50 stood at 7 nM in the data set “cells [1]”; 1230 nM in the data set with A-431; 83 nM in data set [2]; 63 nM with NCI-H1975 [3]; 1350 nM in the data set “cells [4]”; 59 nM in data set [5]. In addition, the IC50 in the data set with A549 was 2560 nM; in data set [6], 17 nM; in “cells [7]”, 2040 nM.
As for `C=CC(=O)Nc1cccc(Oc2nc(Nc3ccc(N4CCN(CC(=O)NCCOc5no[n+]([O-])c5S(=O)(=O)c5ccccc5)CC4)cc3OC)ncc2Cl)c1`, the concentration for half-maximal inhibition (IC50) was 9 nM in “cells [1]”; 736 nM in the data set with A-431; 63 nM in data set [2]; 2020 nM with NCI-H1975 [3]; 1530 nM in “cells [4]”; 51 nM in data set [5]. The 50% inhibitory concentration (IC50) turned out to be 2260 nM in the data set on A549, 14 nM in data set [6] and 1550 nM in “cells [7]”. For the same compound, the outcome in the data set with NCI-H1975 [8] was Active.
As for `O=S(=O)(c1ccccc1)c1c(OCCCCCCO)no[n+]1[O-]`, the IC50 is 4290 nM in “cells [1]”; 3380 nM with A-431; 5930 nM in the data set on NCI-H1975 [3]; 1240 nM in “cells [4]”; 23600 nM in the data set with A549; 3400 nM in “cells [7]”. Also, the outcome in the data set on NCI-H1975 [8] was Active.
As for `C=CC(=O)Nc1cccc(Oc2nc(Nc3ccc(N4CCN(CC(=O)N5CCC(Oc6no[n+]([O-])c6S(=O)(=O)c6ccccc6)CC5)CC4)cc3OC)ncc2Cl)c1`, the IC50 in the data set “cells [1]” came out at 33 nM; in the data set with A-431 it was 701 nM; in data set [2] it was 66 nM; in the data set on NCI-H1975 [3] it was 855 nM; in the data set “cells [4]”, 2200 nM; in data set [5] it was 42 nM. The IC50 was 4250 nM in the data set with A549, 13 nM in data set [6] and 1800 nM in “cells [7]”.
As for `C=CC(=O)Nc1cccc(Oc2nc(Nc3ccc(N4CCN(CC(=O)OCCOCCOc5no[n+]([O-])c5S(=O)(=O)c5ccccc5)CC4)cc3OC)ncc2Cl)c1`, the IC50 in “cells [1]” is 41 nM; with A-431 it was 3020 nM; in data set [2], 113 nM; with NCI-H1975 [3] it was 471 nM; in the data set “cells [4]”, 2940 nM; in [5], 101 nM. The results for the IC50 (in the data set on A549; in [6]; in the data set “cells [7]”) were 4450 nM, 30 nM and 3160 nM, respectively. For the same compound, the outcome with NCI-H1975 [8] was Active.

A word on the IC50: it is the concentration at which inhibition is half-maximal.
